In patent publication US9642806B2, “Antifungal compositions with improved bioavailability” (Janssen Pharmaceutica N.V., priority 1996, dated 2017):

Tests used:
[1] = Thermal stability at melt-extrusion temperatures; type: physicochemical; conditions: temperatures up to 300° C.
Protocol: One of the most important parameters of melt extrusion is the temperature at which the melt-extruder is operating. […] At temperatures lower than 120° C., itraconazole will not dissolve completely in most water-soluble polymers and the extrudate will not have the required bioavailability. In addition, the process is difficult because of the high viscosity of the mixture. At temperatures of more than 300° C. the water-soluble polymer may decompose to an unacceptable level.

[2] = Solubility in aqueous media (USP definition); type: physicochemical; conditions: water; USP definition: more than 10,000 parts of solvent for 1 part of solute
Text: The solvent referred to herein is water.

## CCC(C)n1ncn(-c2ccc(N3CCN(c4ccc(OCC5COC(Cn6cncn6)(c6ccc(Cl)cc6Cl)O5)cc4)CC3)cc2)c1=O (racemic) [itraconazole, (±)-cis-4-[4-[4-[4-[[2-(2,4-dichlorophenyl)-2-(1H-1,2,4-triazol-1-yl-methyl)-1,3-dioxolan-4-yl]methoxy]phenyl]-1-piperazinyl]phenyl]-2,4-dihydro-2-(1-methylpropyl)-3H-1,2,4-triazol-3-one]
[1]
  thermal stability (decomposition): thermally very stable
[2]
  solubility in aqueous media: practically insoluble
